According to patent US8354539B2, “Indole derivatives as IKK2 inhibitors” (Glaxo Group Limited, priority 2009, dated 2013):

Target: T1, Recombinant human IKKβ (IKK2) (Homo sapiens, UniProt O14920)
T1 construct: Recombinant human IKKβ (residues 5-756); GST (C); made in house
T1 sequence (O14920 5-756): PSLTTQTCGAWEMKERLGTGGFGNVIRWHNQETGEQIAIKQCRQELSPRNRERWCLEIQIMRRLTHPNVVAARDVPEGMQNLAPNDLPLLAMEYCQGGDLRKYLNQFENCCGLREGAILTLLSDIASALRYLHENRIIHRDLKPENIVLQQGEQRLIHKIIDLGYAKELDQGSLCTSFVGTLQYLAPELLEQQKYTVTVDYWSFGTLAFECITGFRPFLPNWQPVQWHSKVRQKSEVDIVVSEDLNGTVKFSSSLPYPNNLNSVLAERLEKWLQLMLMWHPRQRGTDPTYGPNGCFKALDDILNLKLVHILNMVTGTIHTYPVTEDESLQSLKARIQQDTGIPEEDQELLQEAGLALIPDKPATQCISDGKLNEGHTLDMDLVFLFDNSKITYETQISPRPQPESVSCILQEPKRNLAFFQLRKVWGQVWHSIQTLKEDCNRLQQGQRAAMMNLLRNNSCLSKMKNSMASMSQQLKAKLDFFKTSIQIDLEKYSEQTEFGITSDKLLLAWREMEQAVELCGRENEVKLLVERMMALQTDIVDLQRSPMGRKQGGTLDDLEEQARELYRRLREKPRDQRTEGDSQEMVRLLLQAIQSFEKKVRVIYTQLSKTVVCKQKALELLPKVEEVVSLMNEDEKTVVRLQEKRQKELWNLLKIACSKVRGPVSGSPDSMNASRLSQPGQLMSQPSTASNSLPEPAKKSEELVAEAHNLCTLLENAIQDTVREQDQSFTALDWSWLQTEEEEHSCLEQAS
Test: IKK2 assay (TR-FRET)
Assay type: biochemical
Conditions: read-out: pIC50 potency against IKK2 (converted)
Procedure: Recombinant human IKKβ (residues 5-756) was expressed in baculovirus as a C-terminal GST-tagged fusion protein, and its activity was assessed using a time-resolved fluorescence resonance energy transfer (TR-FRET) assay. Briefly, IKKβ (0.5-4 nM final concentration) diluted in assay buffer (50 mM HEPES, 10 mM MgCl2, 1 mM CHAPS pH 7.4 with 1 mM DTT and 0.01% w/v BSA) was added to wells containing various concentrations of compound or DMSO vehicle (1.7% v/v final). The reaction was initiated by the addition of GST-IkappaBalpha substrate (25 nM final)/ATP (1 μM final), in a total volume of 6 μl. The reaction was incubated for 15 mins at room temperature, then terminated by the addition of 3 μl of 50 mM EDTA in buffer (100 mM HEPES pH 7.4, 150 mM NaCl and 0.1% w/v BSA) containing antiphosphoserine-IkappaBalpha-32/36 monoclonal antibody clone 12C2 (Cell Signalling Technology, Beverly Mass., USA) labelled with W-1024 europium chelate (Wallac O Y, Turku, Finland), and an APC-labelled anti-GST antibody (Prozyme, San Leandro, Calif., USA). The reaction was further incubated for 60 mins at room temperature and the degree of phosphorylation of GST-IkappaBalpha measured using a Rubystar plate reader (BMG Instruments, Aylesbury, UK) as a ratio of specific 665 nm energy transfer signal to reference europium 620 nm signal.

- IC50: < 100 nM
Structure (SMILES): COCCS(=O)(=O)N1CCC(c2c[nH]c3c(C(N)=O)cc(-c4ccc5c(c4)CN(C(C)C)C5)cc23)CC1 [Compound of formula (I), 5-[2-(1-methylethyl)-2,3-dihydro-1H-isoindol-5-yl]-3-(1-{[2-(methyloxy)ethyl]sulfonyl}-4-piperidinyl)-1H-indole-7-carboxamide]
